Here are results for 1 substance from patent publication US20020103131A1, “Prevention of diabetes by administration of GnRH antagonists” (priority 2001, published 2002).

What all share (type): in vivo
One assay relates to gonadectomized NOD mice. The assay is described as follows: Serum total immunoglobulin G concentrations (single radial immunodiffusion) in gonadectomized NOD mice. The following applies: 100 μg subcutaneously six times weekly, 8 weeks of treatment, compared to vehicle / sham operated, FIG. 1. The source says:
(§1) The well-characterized NOD mice were used throughout the study. Male and female mice were purchased from the Jackson Laboratory (Bar Harbor, Me.). These mice are art-recognized animal models used in diabetes research. (Makino et al., (1980) Breeding of a Non-obese Diabetic Strain of Mice. Exp Anim, 29, 1-13; Miyazaki, A. T., et al, (1985) Predominance of T Lymphocytes in Pancreatic Islets and Spleen in Prediabetic Non-obese Diabetic (Nod) Mice: a Longitudinal Study. Clin Exp immunol, 60, 622-630)
(§2) Both intact and gonadectomized mice (GDX) were used. […] To compare the effects of GnRH agonists and antagonists, gonadectomized animals were randomized at 14 to 18 days of age and begun immediately in one of the following main treatment groups: GnRH agonist; Antide; vehicle. One group of gonadectomized males was treated with Nal-Glu, as an additional control. […]
(§3) Total immunoglobulin G concentrations were measured by single radial immunodiffusion assay using immunodiffusion plates containing monospecific antiserum for IgG (ICN Biomedicals, Inc., Costa Mesa, Calif.). […] Glycosuria was scored by comparison to reference standards on a scale of 0 to 4 as follows: negative=0; 30 mg/dL=1; 100 mg/dL=2; 300 mg/dL=3;>1000 mg/dL=4.
(§4) Serum immunoglobulin measurements were compared by two-tailed Student's paired t-tests. Percentages of mice remaining diabetes-free was assessed by Mantel-Haenszel methodology. […]

The subject of assay [1] is gonadectomized male NOD mice. Description: Incidence and onset of diabetes in gonadectomized male NOD mice. Conditions: 100 μg subcutaneously six times weekly.
Source text: as §1, §2, §3, §4

The next assay concerns NOD mice. The assay is described as follows: Serum prolactin by radioimmunoassay in treated NOD mice. Conditions: NOD mice under agonist or antagonist treatment. The procedure: Both intact and gonadectomized mice (GDX) were used. […] To compare the effects of GnRH agonists and antagonists, gonadectomized animals were randomized at 14 to 18 days of age and begun immediately in one of the following main treatment groups: GnRH agonist; Antide; vehicle. One group of gonadectomized males was treated with Nal-Glu, as an additional control.
GnRH (native decapeptide) was purchased from Bachem (Bubendorf, Switzerland). GnRH antagonist Antide (Acetyl-β-[2-Naphthyl]-D-Ala-D-p-Chloro-Phe-β-[3-Pyridyl]-D-Ala-Ser-Nε-]-Lys-Nε-[Nicotinoyl]-D-Lys-Leu-Nε-[Isopropyl]-Lys-Pro-D-Ala-NH2) was supplied by Contraceptive Development Branch (NICHHD) of the National Institutes of Health and Ares-Serono (Randolph, Mass.). A second GnRH antagonist, Nal-Glu (acetyl-D2Nal1, D4ClPhe2, D3Pal3, Arg5, Dglu6(AA), DAla10) was supplied by NICHHD and was used on a subset of mice. All references to GnRH agonist refer to the native decapeptide. Animals were injected subcutaneously in the nape of the neck six times weekly, in the a.m., with 100 μg of GnRH or GnRH antagonist in 100 μl of vehicle consisting of 50% propylene glycol and 50% double distilled water. […]
Serum testosterone concentrations were measured by RIA using a commercial kit (Coat-A-Count, Diagnostic Products Corporation, Los Angeles, Calif.). Serum LH and prolactin were measured by radioimmunoassay (RIA) using previously described methods. […]

“Also recorded” adds a separate entry of the source.

For the substance “GnRH agonist: GnRH (native decapeptide) purchased from Bachem; all references to GnRH agonist refer to the native decapeptide (QHWSYGLRPG; Gonadoliberin-1; UniProt P01148 24-33, looked up)”, the “Serum IgG concentrations” value with gonadectomized NOD mice is given as “further increased IgG levels compared to vehicle; also recorded: reciprocal effects”. Moreover, the “Timing of onset of diabetes” value in assay [1] (gonadectomized NOD mice) is recorded as “accelerated the timing of onset of diabetes; also recorded: reciprocal effects”. The Incidence of diabetes result in assay [1] (gonadectomized male NOD mice, compared to vehicle, FIG. 2) is reported as “significantly increased the incidence”. Also, the Serum prolactin levels result with NOD mice is “neither agonist nor antagonist treatment altered serum prolactin levels”.
